# What was measured:
# [1] = Plasma pharmacokinetics of taminadenant in the phase I/Ib study; assay type: in vivo, human
# A2AR = conditions: cells transfected with A2AR; cited from earlier work
# human A2AR = conditions: cited from earlier work
# [2] = test system: advanced/metastatic NSCLC; assay: Tumor response; assay type: in vivo, human
# [3] = test system: patients with advanced NSCLC; assay: Safety, tolerability, DLT and MTD in the phase I/Ib dose-escalation study; assay type: in vivo
# mouse xenograft models = conditions: cited from earlier work
# [4] = investigator-assessed, RECIST v1.1, n=25
structure (smiles),measurement,setting,value
Nc1nc(-n2cccn2)nc(-n2cccn2)c1Br [Taminadenant],Vd/F,"[1]; human, in vivo",114 to 1520 L
same,apparent clearance (CL/F) upon repeated daily dosing compared with a single dose,"[1]; human, in vivo",notably decreased
same,time to maximum plasma drug concentration (Cmax),"[1]; human, in vivo, po",0.5 to 3 h
same,differences in taminadenant PK between the single-agent and combination group,[1]; large inter-individual variability in Cmax and AUC,no notable differences
same,accumulation relative to a single dose,"[1]; repeated daily doses, after 1 week",approximately 3 fold
same,"increase of systemic exposure (Cmax, AUC) with escalating doses",[1]; single and multiple doses from 80 mg to 640 mg,more-than-proportional
same,effect on cyclic adenosine monophosphate accumulation,A2AR,inhibition of cyclic adenosine monophosphate accumulation
same,"in vitro binding affinity to human A2AR, as concentration",human A2AR,3.67 ng/mL
same,Ki,human A2AR; read-out: in vitro binding affinity to human A2AR,0.012 µM
same,Disease control rate,"[2]; CR + PR + SD, based on the number of evaluable patients",42.9 (21.8–66.0) % (95% CI)
same,Overall response rate,"[2]; CR + PR, based on the number of evaluable patients",9.5 (1.2–30.4) % (95% CI)
same,median estimate of OS,[2]; Kaplan-Meier,9.7 months
same,median estimate of PFS,"[2]; Kaplan-Meier, RECIST v1.1",3.9 months
same,Best overall response: Complete response,[2]; [4],1 (4.0) n (%)
same,Best overall response: Non-evaluable,[2]; [4],4 (16.0) n (%)
same,Best overall response: Partial response,[2]; [4],1 (4.0) n (%)
same,Best overall response: Progressive disease,[2]; [4],12 (48.0) n (%)
same,Best overall response: Stable disease,[2]; [4],7 (28.0) n (%)
same,patients who achieved disease control,[2]; of all 25 patients per group,36.0%
same,duration of complete response,"[2]; one patient each, single agent 480 mg, combination 160 mg taminadenant",1.1 months
same,duration of disease control in a patient with stable disease,"[2]; one patient, 160 mg, on treatment at data cut-off",36.7 months
same,dose delays or interruptions,"[3]; human, in vivo",13 patients
same,patients who discontinued due to adverse events,"[3]; human, in vivo",12.0%
same,patients with Grade 3/4 TRAEs,"[3]; human, in vivo",16.0%
same,patients with treatment-related adverse events (TRAEs) of any grade,"[3]; human, in vivo",84.0%
same,patients with treatment-related fatigue,"[3]; human, in vivo",20.0%
same,patients with treatment-related gastroesophageal reflux disease,"[3]; human, in vivo",24.0%
same,patients with treatment-related nausea,"[3]; human, in vivo",44.0%
same,patients with treatment-related vomiting,"[3]; human, in vivo",20.0%
same,dose delays due to TRAEs,[3]; in vivo,five
same,"patients reporting at least one adverse event, regardless of causality",[3]; in vivo,All patients
same,tolerability,[3]; in vivo,well tolerated
same,on-study deaths,"[3]; n=25 per group, none related to study treatment",8.0%
same,maximum tolerated dose (MTD) of taminadenant,"[3]; oral, combination with 400 mg spartalizumab Q4W",480 mg BID
same,effect on tumor growth,mouse xenograft models,significantly reduced tumor growth
